Measured values: article PMC12908707, “Pharmacodynamic effects and plasma pharmacokinetics of N, N-dimethyltryptamine after intranasal versus subcutaneous administration in male rats” (Psychopharmacology, 2025)
Like-named read-outs stand apart in the source and are kept apart here.

Legend:
male and female rats = test system: male and female rats; parameters: method as in Tylš et al. [2016]; details: SC, ref Tylš et al. [2016]; cited from earlier work
[1] = Plasma pharmacokinetics of DMT and DMT N-oxide after IN or SC DMT (LC-QQQ-MS, non-compartmental analysis); assay type: in vivo, male Sprague-Dawley rats; details: for AUC / Tmax / Cmax / half-life: male, Sprague-Dawley, rat, plasma DMT; for Cmax / half-life: plasma
Protocol: For the IN DMT experiments, blood samples (300 µL) were withdrawn via IV catheters immediately before (time zero) and at 5, 10, 20, 40, and 80 min after injection. For the SC DMT experiments, blood samples were withdrawn immediately before (time zero) and at 10, 20, 40, 80, and 160 min after injection. Samples were collected into 1 mL tuberculin syringes and transferred to 1.5 mL plastic tubes containing 5 µL of 1000 IU/mL heparin (Thomas Scientific) as an anticoagulant and 5 µL of 250 mM sodium metabisulfite as a preservative. Blood was centrifuged at 1000 g for 10 min at 4 °C. Plasma was decanted into cryovials and stored at − 80 °C until analysis. To maintain volume and osmotic homeostasis, rats received an equal volume of saline solution via the IV catheter after each blood withdrawal.
Samples were extracted using a basic solid phase extraction (SPE) procedure. Spiking solutions (final concentrations 0.1, 1.0 and 10 ng/µL) contained all analytes and were prepared by serial dilution in methanol from stock solutions. Calibration curves contained eight non-zero calibrators from 5 to 1000 ng/mL. Quality controls were assessed at 15, 60, 150, and 800 ng/mL. DMT-D4 (25 µL, 1.0 ng/µL) was utilized as the internal standard. Authentic rat plasma samples were stored at −80 °C prior to analysis.
Drug-free rat plasma was fortified with appropriate spiking solutions and aliquoted (150 µL) for extraction. Authentic rat plasma was assayed at 150 µL. Internal standard was added at a final concentration of 125 ng/mL. Samples were diluted with 1 mL phosphate buffer (0.1 M, pH 6) followed by centrifugation for 5 min at 4200 rpm, then extracted using Chromabond® SPE cartridges (200 mg, 3 mL)(Macherey-Nagel, Allentown, PA, USA). The columns were conditioned using methanol (2 mL), deionized water (2 mL), and phosphate buffer (0.1 M, pH 6, 2 mL). The buffered sample was added to the columns and impurities were removed using deionized water (1 mL), acetic acid (0.1 M, 1 mL), and methanol (1 mL). Analytes were eluted using 3 mL of dichloromethane: isopropanol: ammonia (78:20:2, v: v:v). The organic solvent was evaporated to dryness under nitrogen at 33 °C. Samples were reconstituted in 100 µL of initial mobile phase conditions (90 A:10B).

male Sprague-Dawley rats [2] = assay: Behavioral scoring: wet dog shakes (proxy for 5-HT2A activation); assay type: in vivo; details: SC, 1 and 3 mg/kg
male Sprague-Dawley rats [3] = assay: Core body temperature by SC temperature transponder
male Sprague-Dawley rats [4] = assay: Behavioral scoring: motor activity (summed motor scores); assay type: in vivo; details: IN or SC, 1, 3, 10 mg/kg; Dunnett's post hoc test
male Sprague-Dawley rats [5] = assay: Behavioral scoring: flat body posture (element of the 5-HT syndrome); assay type: in vivo
rats [6] = test system: rats; parameters: method as in Baumann and Rothman [1996]; Elmore et al. [2018]; details: SC, dose-related increases, ref Baumann and Rothman [1996], Elmore et al. [2018]; cited from earlier work
rats [7] = test system: rats; parameters: method as in Lucki et al. ([1984]); details: intraperitoneal (IP), ref Lucki et al. ([1984]); cited from earlier work
[8] = inhaled or intranasal, 1 mg/kg IN, mean ± SEM, n = 5 rats
[9] = inhaled or intranasal, 3 mg/kg IN, mean ± SEM, n = 5 rats
[10] = inhaled or intranasal, 10 mg/kg IN, mean ± SEM, n = 5 rats
[11] = 1 mg/kg SC, mean ± SEM, n = 5 rats
[12] = 3 mg/kg SC, mean ± SEM, n = 5 rats
[13] = 10 mg/kg SC, mean ± SEM, n = 5 rats

CN(C)CCc1c[nH]c2cccc(O)c12 [psilocin, 4-hydroxy-N, N-dimethyltryptamine]
flat body posture (male and female rats): causes flat body posture

C[N+](C)([O-])CCc1c[nH]c2ccccc12 [DMT N-oxide]
plasma concentrations of DMT N-oxide by 80 min post-treatment ([1]; after all doses of IN DMT): either undetectable or very low

CN(C)CCc1c[nH]c2ccccc12 [DMT, N,N-dimethyltryptamine]
wet dog shakes vs vehicle (male Sprague-Dawley rats [2]): increased compared to vehicle | body temperature nadir (hypothermic effect) (male Sprague-Dawley rats [3]; 10 mg/kg IN, sustained throughout the sampling period (80 min)): 34.4 °C | body temperature nadir (hypothermic effect) (male Sprague-Dawley rats [3]; 10 mg/kg SC, subsided by end of sampling period (160 min)): 34.2 °C | body temperature vs saline controls (male Sprague-Dawley rats [3]; IN, all doses, by 20 min post-treatment): significantly reduced temperature | summed motor scores vs vehicle controls (male Sprague-Dawley rats [4]): no significant differences | flat body posture vs vehicle (male Sprague-Dawley rats [5]; IN, 3 and 10 mg/kg): increased above vehicle | flat body posture vs vehicle (male Sprague-Dawley rats [5]; SC, only at 10 mg/kg): increased | predicted AUC ([1]; 10 mg/kg IN, ~3.3-times the measured AUC at 3 mg/kg): 2950 ng·min/mL | plasma concentrations of DMT by 80 min post-treatment ([1]; after all doses of IN DMT): below the LOD, or nearly so | AUC [1, 8]: 6.08 ng·h/mL | Tmax [1, 8]: 5 min | AUC [1, 9]: 14.9 ng·h/mL | Tmax [1, 9]: 6 min | AUC [1, 10]: 93.8 ng·h/mL | Tmax [1, 10]: 7 min | Cmax ([1]; inhaled or intranasal, 1 mg/kg, 1 mg/kg IN, mean ± SEM, n = 5 rats, read-out: Cmax): 30.1 ± 7.6 ng/mL | half-life ([1]; inhaled or intranasal, 1 mg/kg, 1 mg/kg IN, mean ± SEM, n = 5 rats, read-out: t1/2): 12.9 ± 2.8 min | Cmax ([1]; inhaled or intranasal, 3 mg/kg, 3 mg/kg IN, mean ± SEM, n = 5 rats, read-out: Cmax): 55.6 ± 15.4 ng/mL | half-life ([1]; inhaled or intranasal, 3 mg/kg, 3 mg/kg IN, mean ± SEM, n = 5 rats, read-out: t1/2): 14.3 ± 1.9 min | Cmax ([1]; inhaled or intranasal, 10 mg/kg, 10 mg/kg IN, mean ± SEM, n = 5 rats, read-out: Cmax): 268 ± 50.7 ng/mL | half-life ([1]; inhaled or intranasal, 10 mg/kg, 10 mg/kg IN, mean ± SEM, n = 5 rats, read-out: t1/2): 11.9 ± 1.4 min | Cmax ([1]; other: IN (intranasal, infused into the nares), 3 mg/kg, low IN doses (1 and 3 mg/kg), read-out: maximal DMT concentrations (Cmax) after low IN doses): 30.2 to 55.6 ng/mL | half-life ([1]; other: IN (intranasal, infused into the nares), 10 mg/kg, IN route, across 1, 3 and 10 mg/kg, read-out: t1/2 range): 11.9 to 14.3 min | Cmax ([1]; sc, 1 mg/kg, 1 mg/kg SC, mean ± SEM, n = 5 rats, read-out: Cmax): 19.6 ± 2.2 ng/mL | half-life ([1]; sc, 1 mg/kg, 1 mg/kg SC, mean ± SEM, n = 5 rats, read-out: t1/2): 45.5 ± 9.5 min | Cmax ([1]; sc, 3 mg/kg, 3 mg/kg SC, mean ± SEM, n = 5 rats, read-out: Cmax): 35.8 ± 2.4 ng/mL | half-life ([1]; sc, 3 mg/kg, 3 mg/kg SC, mean ± SEM, n = 5 rats, read-out: t1/2): 91.7 ± 26.4 min | Cmax ([1]; sc, 10 mg/kg, 10 mg/kg SC, mean ± SEM, n = 5 rats, read-out: Cmax): 81.6 ± 11.1 ng/mL | half-life ([1]; sc, 10 mg/kg, 10 mg/kg SC, mean ± SEM, n = 5 rats, read-out: t1/2): 123 ± 36.4 min | half-life ([1]; sc, 10 mg/kg, SC route, across 1, 3 and 10 mg/kg, read-out: t1/2 range): 45.5 to 123 min | AUC [1, 11]: 16.4 ng·h/mL | Tmax [1, 11]: 14 min | AUC [1, 12]: 47.7 ng·h/mL | Tmax [1, 12]: 22 min | AUC [1, 13]: 158 ng·h/mL | Tmax [1, 13]: 64 min

COc1cc(CC(C)N)c(OC)cc1I (centres unmarked) [DOI, 1-(4-iodo-2,5-dimethoxyphenyl)propan-2-amine]
wet dog shakes (rats [6]): more than ten episodes per hour

COc1ccc2[nH]cc(CCN(C)C)c2c1 [5-MeO-DMT, 5-methoxy-N, N-dimethyltryptamine]
5-HT behavioral syndrome (rats [7]): produces the 5-HT behavioral syndrome

COc1cc(CCN)c(OC)cc1I [2 C-I, 2-(4-iodo-2,5-dimethoxyphenyl)ethanamine]
wet dog shakes (rats [6]): more than ten episodes per hour
